Laboratory results published in ChEMBL document CHEMBL5107986, “Small molecule NS5B RdRp non-nucleoside inhibitors for the treatment of HCV infection: A medicinal chemistry perspective” (Eur J Med Chem, 2022).

Experiments:
Assay type in all cases: functional, organism-based, Hepacivirus hominis
Hepatitis C virus [1] = experiment: Antiviral activity against intrinsic HCV GT1a assessed as reduction in viral replication
Hepatitis C virus [2] = experiment: Antiviral activity against HCV GT1b assessed as inhibition of viral replication
Hepatitis C virus [3] = experiment: Antiviral activity against HCV GT1b assessed as reduction in viral replication
Hepatitis C virus [4] = experiment: Antiviral activity against HCV GT1b C316Y assessed as reduction in viral replication
Hepatitis C virus [5] = experiment: Antiviral activity against HCV GT1b 316N assessed as reduction in viral replication
Hepatitis C virus [6] = experiment: Antiviral activity against intrinsic HCV GT2a assessed as reduction in viral replication

Row | SMILES | EC50 (Hepatitis C virus [1]) | EC50 (Hepatitis C virus [3]) | further results
1 | CC(C)N(c1cc(C#CC(C)(C)C)sc1C(=O)O)C(=O)[C@H]1CC[C@H](C)CC1 | 5.5 nM | – | –
2 | COc1ccc2c(c1)C=C1Cn3c-2c(C2CCCCC2)c2ccc(cc23)C(=O)NS(=O)(=O)N(C)CCCCN(C)C1=O | – | 75 nM | IC50 (Hepatitis C virus [2]): 26 nM
3 | O=C1N/C(=N\c2nnc(-c3ccc(Cl)cc3)s2)S/C1=C\c1c(Cl)cccc1Cl | – | – | IC50 (Hepatitis C virus [2]): 5600 nM
4 | O=C1N/C(=N\c2nnc(-c3ccc(F)cc3)s2)S/C1=C\c1c(Cl)cccc1Cl | – | – | IC50 (Hepatitis C virus [2]): 19800 nM
5 | CNC(=O)c1c(-c2ccc(F)cc2)oc2cc(N(Cc3ccc(B(O)O)c(F)c3)S(C)(=O)=O)c(C3CC3)cc12 | – | 1.7 nM | EC50 (Hepatitis C virus [4]): 1.9 nM
6 | CC(C)(C)C#Cc1cc(N(C(=O)[C@H]2CC[C@H](C)CC2)[C@H]2CC[C@H](Oc3cccnc3)CC2)c(C(=O)O)s1 | 3.6 nM | – | –
7 | CC(C)(C)C#Cc1cc(N(C(=O)[C@H]2CC[C@H](C)CC2)[C@H]2CC[C@H](OC3CCOC3)CC2)c(C(=O)O)s1 (stereo partly specified) | 8.1 nM | – | –
8 | CC(C)(C)C#Cc1cc(N(C(=O)[C@H]2CC[C@H](C)CC2)[C@H]2CC[C@](O)(CO[C@H]3CCOC3)CC2)c(C(=O)O)s1 | 2.2 nM | – | –
9 | CC1=CC[C@H](C(=O)N(c2cc(C#CC(C)(C)C)sc2C(=O)O)C(C)C)CC1 | 2.2 nM | – | –
10 | CNC(=O)c1c(-c2ccc(F)cc2)oc2cc(N(c3cc(Cl)c4c(c3)COB4O)S(C)(=O)=O)c(C3CC3)cc12 | 1.3 nM | 2.5 nM | EC50 (Hepatitis C virus [5]): 2.5 nM
11 | CNC(=O)c1c(-c2ccc(F)cc2)oc2cc(N(C)S(C)(=O)=O)c(-c3cccc(CNS(=O)(=O)c4cccc(OC)c4)c3)cc12 | – | 1 nM | EC50 (Hepatitis C virus [6]): 6 nM
12 | CNC(=O)c1c(-c2ccc(F)cc2)oc2cc(N(C)S(C)(=O)=O)c(-c3ccc(OC)c(-c4nc5c(F)cccc5o4)c3)cc12 | – | 3.1 nM | EC50 (Hepatitis C virus [4]): 9.2 nM
13 | CNC(=O)c1c(-c2ccc(F)cc2)oc2cc(N(C)S(C)(=O)=O)c(-c3ccccc3)cc12 | – | 120 nM | –
14 | CNC(=O)c1c(-c2ccc(F)cc2)oc2cc(N(C)S(C)(=O)=O)c(-c3ccc(OC)cc3)cc12 | – | 16 nM | EC50 (Hepatitis C virus [6]): 60 nM
15 | CNC(=O)c1c(-c2ccc(F)cc2)oc2cc(N(CCO)S(C)(=O)=O)c(-c3ccccc3)cc12 | – | 62 nM | –
16 | Cn1c(-c2ncc(Br)cn2)c(C2CCCC2)c2ccc(C(=O)NC3(c4nc5ccc(/C=C/C(=O)O)cc5[nH]4)CCC3)cc21 | – | 11 nM | IC50 (Hepatitis C virus [2]): 50 nM
17 | CNC(=O)c1c(-c2ccc(F)cc2)oc2cc(N(C)S(C)(=O)=O)c(-c3ccc4c(n3)-c3cc5c(F)cccc5n3CO4)cc12 [MK-8876] | – | 2.2 nM | EC50 (Hepatitis C virus [4]): 7.3 nM; EC50 (Hepatitis C virus [6]): 2.7 nM
18 | CNC(=O)c1c(-c2ccc(F)cc2)oc2cc(N(CCO)S(C)(=O)=O)c(C3CC3)cc12 [NESBUVIR] | – | 18 nM | EC50 (Hepatitis C virus [5]): 170 nM
19 | CC1=CC[C@H](C(=O)N(c2cc(C#CC(C)(C)C)sc2C(=O)O)[C@H]2CC[C@](O)(CO[C@H]3CCOC3)CC2)CC1 [RADALBUVIR] | 2.9 nM | 6 nM | –
